{"source": "patent US20230390292A1", "about": "“REGIMENS FOR THE TREATMENT OF HAIR LOSS DISORDERS WITH DEUTERATED JAK INHIBITORS” (Sun Pharmaceutical Industries, Inc., priority 2020, published 2023)", "format_in_all_cases": "in vivo, human", "key": {"[1]": {"system": "adult patients with moderate-to-severe alopecia areata", "assay": "Phase 2a trial, efficacy by severity of alopecia tool (SALT)", "from_the_text": "The efficacy of treatment of hair loss disorders such as alopecia areata can be measured in a variety of ways, some of which are known in the art. For example, the “severity of alopecia tool”, otherwise known as SALT, is a validated assessment scale developed by the National Alopecia Areata Foundation working committee—to evaluate the degree of hair loss. See, e.g., Olsen E A, Hordinsky M K, Price V H, et al. Alopecia areata investigational assessment guidelines—Part II. J Am Acad Dermatol 2004: 51: 440-447 (incorporated herein by reference). The SALT score is calculated for a patient by measuring the percentage of hair loss in each of the 4 areas of the scalp and adding the total to achieve a composite score. Hair regrowth is reflected by a decrease in the SALT score. For example, no hair on the scalp would have a SALT score of 100 while complete hair regrowth would be a SALT score of 0. In certain embodiments, methods of treatment as described herein can provide a SALT score improvement of at least 10 points after treatment (for example, from a SALT score of 100 prior to treatment to a SALT score of 90 after treatment). In further embodiments, methods of treatment as described herein can provide a SALT score improvement of at least 20 points, 30 points, 40 points, 50 points, 60 points, 70 points, 80 points, 90 points, or 100 points. In certain embodiments, methods of treatment as described herein can provide after treatment at least a 20% improvement from baseline in the patient's SALT score, or at least a 30% improvement from baseline in the patient's SALT score, or at least a 40% improvement from baseline in the patient's SALT score, or at least a 50% improvement from baseline in the patient's SALT score, or at least a 60% improvement from baseline in the patient's SALT score, or at least a 70% improvement from baseline in the patient's SALT score, or at least a 75% improvement from baseline in the patient's SALT score or at least a 80% improvement from baseline in the patient's SALT score, or at least a 90% improvement from baseline in the patient's SALT score.\n(§1) A Phase 2a trial was conducted to evaluate the safety and efficacy of Compound (I) (CTP-543) in subjects with alopecia, with the primary efficacy analysis at week 24. The Phase 2a trial was a double-blind, randomized, placebo-controlled trial to evaluate the safety and efficacy of Compound (I) in adult patients with moderate-to-severe alopecia areata. Patients were sequentially randomized to receive one of three doses of Compound I as the phosphate salt (e.g., 10.5 mg of Compound (I) phosphate salt is equivalent to 8 mg of Compound (I) free base). The doses of Compound (I) were 4, 8 (i.e., about 10.5 mg of Compound (I) phosphate salt), and 12 mg twice daily, and there was also a patient group receiving placebo. The primary outcome measure utilized the severity of alopecia tool (SALT) after 24 weeks of dosing.\nInterim top line analysis for the 4 mg, 8 mg, and 12 mg cohorts is discussed below. The primary endpoint for the study was a 50% relative reduction in SALT between Week 24 and baseline.\n58% of patients treated with 12 mg BID (twice daily) and 47% of patients treated with 8 mg BID (twice daily) of CTP-543 achieved a ≥50% reduction in their overall SALT score compared to 8.6% placebo (p<0.001). In addition, 42% of patients treated with 12 mg BID (p<0.001) and 29% of patients treated with 8 mg BID (p<0.05) of CTP-543 achieved a ≥75% reduction in their overall SALT score compared to 7% placebo. Further, 36% of patients treated with 12 mg BID (p<0.001) and 16% of patients treated with 8 mg BID (p<0.05) of CTP-543 achieved a ≥90% reduction in their overall SALT score compared to 2% placebo. 21% of patients treated with 4 mg BID of CTP-543 achieved a ≥50% reduction in their overall SALT score compared to 8.6% placebo (not significant). […] Significant changes in SALT score were observed starting at 12 weeks for the 12 mg and 8 mg cohorts compared to placebo (p<0.05)."}, "[2]": {"system": "adult patients with moderate-to-severe alopecia areata", "assay": "Phase 2a trial, safety (treatment emergent adverse events)", "description": "as §1\nIn the preliminary analysis of the placebo, 4 mg, and 8 mg groups, there were only 3 Grade 3/4 hematology events, distributed equally across the placebo, 4 mg, and 8 mg groups."}, "[3]": {"system": "subjects with alopecia areata", "assay": "Open-label extension study (OLE), SALT score after dose reduction", "description": "In an ongoing open-label extension study, subjects who were previously enrolled in a qualifying clinical study (including the study described in Example 1) and received either a total daily dose of 16 mg of Compound (I) (CTP-543, phosphate salt), a total daily dose of 24 mg of CTP-543, or placebo, and completed through the 24-week treatment period, were eligible to enroll in an open-label extension study (OLE) and continue to receive treatment with CTP-543 phosphate. A total of 152 subjects were enrolled in the OLE. In the OLE, subjects received daily treatment with CTP-543 at a dose of 8 mg BID or 12 mg BID (see FIG. 8). Dose adjustments were allowed at the investigator's discretion. One subject enrolled in the OLE, who received a daily dose of 24 mg QD of CTP-543 for approximately 9 months (i.e., the 24-week study period and the initial 3 months of the OLE), experienced hair growth at that dose (SALT score of zero, i.e., full regrowth of hair prior to dose reduction). The subject then had their dose reduced to a daily dose of 8 mg BID of CTP-543 phosphate. After approximately 7 months in the OLE receiving the lower daily dose of 8 mg BID of CTP-543, the subject continued to substantially maintain hair regrowth, with a SALT score of 7.92."}}, "data": [{"smiles": "[2H]C1([2H])C([C@@H](CC#N)n2cc(-c3ncnc4[nH]ccc34)cn2)C([2H])([2H])C([2H])([2H])C1([2H])[2H]", "note": "[CTP-543, (R)-3-(4-(7H-pyrrolo[2,3-d]pyrimidin-4-yl)-1H-pyrazol-1-yl)-3-(cyclopentyl-2,2,3,3,4,4,5,5-d8)propanenitrile]", "values": [{"measurement": "separation from placebo", "setting": "[1]; 4 mg BID, all measures", "value": "failed to separate from placebo on all measures"}, {"measurement": "patients achieving a ≥50% reduction in overall SALT score", "setting": "[1]; 4 mg BID, week 24, vs 8.6% placebo (not significant)", "value": 21, "unit": "%"}, {"measurement": "difference from placebo on SALT measures", "setting": "[1]; 8 mg BID and 12 mg BID, week 24", "value": "significantly different from placebo on all SALT measures"}, {"measurement": "patients achieving a ≥90% reduction in overall SALT score", "setting": "[1]; 8 mg BID, vs 2% placebo (p<0.05)", "value": 16, "unit": "%"}, {"measurement": "patients achieving a ≥75% reduction in overall SALT score", "setting": "[1]; 8 mg BID, vs 7% placebo (p<0.05)", "value": 29, "unit": "%"}, {"measurement": "patients achieving a ≥50% reduction in overall SALT score", "setting": "[1]; 8 mg BID, week 24, vs 8.6% placebo (p<0.001)", "value": 47, "unit": "%"}, {"measurement": "effect of 12 mg BID compared to 8 mg BID", "setting": "[1]; 12 mg BID vs 8 mg BID", "value": "numerically superior and generally produced faster onset and greater effect"}, {"measurement": "patients achieving a ≥90% reduction in overall SALT score", "setting": "[1]; 12 mg BID, vs 2% placebo (p<0.001)", "value": 36, "unit": "%"}, {"measurement": "patients achieving a ≥75% reduction in overall SALT score", "setting": "[1]; 12 mg BID, vs 7% placebo (p<0.001)", "value": 42, "unit": "%"}, {"measurement": "patients achieving a ≥50% reduction in overall SALT score", "setting": "[1]; 12 mg BID, week 24, vs 8.6% placebo (p<0.001)", "value": 58, "unit": "%"}, {"measurement": "start of significant changes in SALT score compared to placebo", "setting": "[1]; 12 mg and 8 mg cohorts, p<0.05", "value": 12, "unit": "weeks"}, {"measurement": "difference of 12 mg BID and 8 mg BID dose groups from 4 mg BID dose group", "setting": "[1]; p<0.05", "value": "significantly different"}, {"measurement": "Acne, patients (%)", "setting": "[2]; 4 mg twice daily", "value": "4 (13.8%)"}, {"measurement": "Blood creatine phosphokinase increased, patients (%)", "setting": "[2]; 4 mg twice daily", "value": "3 (10.3%)"}, {"measurement": "Cough, patients (%)", "setting": "[2]; 4 mg twice daily", "value": "4 (13.8%)"}, {"measurement": "Diarrhoea, patients (%)", "setting": "[2]; 4 mg twice daily", "value": "3 (10.3%)"}, {"measurement": "Folliculitis, patients (%)", "setting": "[2]; 4 mg twice daily", "value": "3 (10.3%)"}, {"measurement": "Headache, patients (%)", "setting": "[2]; 4 mg twice daily", "value": "5 (17.2%)"}, {"measurement": "LDL increase, patients (%)", "setting": "[2]; 4 mg twice daily", "value": 0}, {"measurement": "Nasopharyngitis, patients (%)", "setting": "[2]; 4 mg twice daily", "value": "3 (10.3%)"}, {"measurement": "Nausea, patients (%)", "setting": "[2]; 4 mg twice daily", "value": "4 (13.8%)"}, {"measurement": "Oroharyngeal pain, patients (%)", "setting": "[2]; 4 mg twice daily", "value": "3 (10.3%)"}, {"measurement": "Upper respiratory tract infection, patients (%)", "setting": "[2]; 4 mg twice daily", "value": "2 (6.9%)"}, {"measurement": "Acne, patients (%)", "setting": "[2]; 8 mg twice daily", "value": "4 (10.5%)"}, {"measurement": "Blood creatine phosphokinase increased, patients (%)", "setting": "[2]; 8 mg twice daily", "value": "2 (5.3%)"}, {"measurement": "Cough, patients (%)", "setting": "[2]; 8 mg twice daily", "value": "1 (2.6%)"}, {"measurement": "Diarrhoea, patients (%)", "setting": "[2]; 8 mg twice daily", "value": "1 (2.6%)"}, {"measurement": "Folliculitis, patients (%)", "setting": "[2]; 8 mg twice daily", "value": "2 (5.3%)"}, {"measurement": "Headache, patients (%)", "setting": "[2]; 8 mg twice daily", "value": "10 (26.3%)"}, {"measurement": "LDL increase, patients (%)", "setting": "[2]; 8 mg twice daily", "value": "4 (10.5%)"}, {"measurement": "Nasopharyngitis, patients (%)", "setting": "[2]; 8 mg twice daily", "value": "3 (7.9%)"}, {"measurement": "Nausea, patients (%)", "setting": "[2]; 8 mg twice daily", "value": "4 (10.5%)"}, {"measurement": "Oroharyngeal pain, patients (%)", "setting": "[2]; 8 mg twice daily", "value": "2 (5.3%)"}, {"measurement": "Upper respiratory tract infection, patients (%)", "setting": "[2]; 8 mg twice daily", "value": "2 (5.3%)"}, {"measurement": "Acne, patients (%)", "setting": "[2]; 12 mg twice daily", "value": "6 (16.7%)"}, {"measurement": "Blood creatine phosphokinase increased, patients (%)", "setting": "[2]; 12 mg twice daily", "value": "1 (2.8%)"}, {"measurement": "Cough, patients (%)", "setting": "[2]; 12 mg twice daily", "value": "2 (5.6%)"}, {"measurement": "Diarrhoea, patients (%)", "setting": "[2]; 12 mg twice daily", "value": 0}, {"measurement": "Folliculitis, patients (%)", "setting": "[2]; 12 mg twice daily", "value": "1 (2.8%)"}, {"measurement": "Headache, patients (%)", "setting": "[2]; 12 mg twice daily", "value": "7 (19.4%)"}, {"measurement": "LDL increase, patients (%)", "setting": "[2]; 12 mg twice daily", "value": 0}, {"measurement": "Nasopharyngitis, patients (%)", "setting": "[2]; 12 mg twice daily", "value": "9 (25.0%)"}, {"measurement": "Nausea, patients (%)", "setting": "[2]; 12 mg twice daily", "value": "1 (2.8%)"}, {"measurement": "Oroharyngeal pain, patients (%)", "setting": "[2]; 12 mg twice daily", "value": "1 (2.8%)"}, {"measurement": "Upper respiratory tract infection, patients (%)", "setting": "[2]; 12 mg twice daily", "value": "7 (19.4%)"}, {"measurement": "serious adverse events", "setting": "[2]; 4, 8, 12 mg BID, 24 weeks", "value": "no serious adverse events"}, {"measurement": "tolerability of treatment", "setting": "[2]; 4, 8, 12 mg BID, 24 weeks", "value": "generally well-tolerated"}, {"measurement": "Grade 3/4 hematology events", "setting": "[2]; preliminary analysis, total, distributed equally across placebo, 4 mg and 8 mg groups", "value": 3}, {"measurement": "SALT score prior to dose reduction", "setting": "[3]; one subject, 24 mg QD for approximately 9 months", "value": "zero"}, {"measurement": "SALT score after dose reduction", "setting": "[3]; same subject, approximately 7 months at 8 mg BID after 24 mg QD", "value": 7.92}]}]}
